Target: T1, hNav1.8 (Homo sapiens, UniProt Q9Y5Y9)
T1 construct: host or cells: HEK cells, stably transfected
Assay: hNav1.8 whole-cell patch-clamp electrophysiology (conventional or PatchXpress 7000) in stably transfected HEK cells
Format: cell-based
Conditions: estimated IC50 calculated from single point % inhibition; HEK cells expressing hNav1.8; 8 sec prepulse to V1/2, 20 msec step to 0 mV; average of replicates; read-out: Nav1.8 EIC50
How it was run: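 Whole-cell voltage clamp at 22-24 °C in HEK cells stably expressing hNav1.8, manually or on PatchXpress. Current evoked by 20 msec step to 0 mV after 8 s prepulse to each cell's inactivation V1/2; single-concentration % inhibition converted to estimated IC50, using only 20-80% inhibition values, averaged over replicates.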

T1 sequence (Q9Y5Y9 whole entry): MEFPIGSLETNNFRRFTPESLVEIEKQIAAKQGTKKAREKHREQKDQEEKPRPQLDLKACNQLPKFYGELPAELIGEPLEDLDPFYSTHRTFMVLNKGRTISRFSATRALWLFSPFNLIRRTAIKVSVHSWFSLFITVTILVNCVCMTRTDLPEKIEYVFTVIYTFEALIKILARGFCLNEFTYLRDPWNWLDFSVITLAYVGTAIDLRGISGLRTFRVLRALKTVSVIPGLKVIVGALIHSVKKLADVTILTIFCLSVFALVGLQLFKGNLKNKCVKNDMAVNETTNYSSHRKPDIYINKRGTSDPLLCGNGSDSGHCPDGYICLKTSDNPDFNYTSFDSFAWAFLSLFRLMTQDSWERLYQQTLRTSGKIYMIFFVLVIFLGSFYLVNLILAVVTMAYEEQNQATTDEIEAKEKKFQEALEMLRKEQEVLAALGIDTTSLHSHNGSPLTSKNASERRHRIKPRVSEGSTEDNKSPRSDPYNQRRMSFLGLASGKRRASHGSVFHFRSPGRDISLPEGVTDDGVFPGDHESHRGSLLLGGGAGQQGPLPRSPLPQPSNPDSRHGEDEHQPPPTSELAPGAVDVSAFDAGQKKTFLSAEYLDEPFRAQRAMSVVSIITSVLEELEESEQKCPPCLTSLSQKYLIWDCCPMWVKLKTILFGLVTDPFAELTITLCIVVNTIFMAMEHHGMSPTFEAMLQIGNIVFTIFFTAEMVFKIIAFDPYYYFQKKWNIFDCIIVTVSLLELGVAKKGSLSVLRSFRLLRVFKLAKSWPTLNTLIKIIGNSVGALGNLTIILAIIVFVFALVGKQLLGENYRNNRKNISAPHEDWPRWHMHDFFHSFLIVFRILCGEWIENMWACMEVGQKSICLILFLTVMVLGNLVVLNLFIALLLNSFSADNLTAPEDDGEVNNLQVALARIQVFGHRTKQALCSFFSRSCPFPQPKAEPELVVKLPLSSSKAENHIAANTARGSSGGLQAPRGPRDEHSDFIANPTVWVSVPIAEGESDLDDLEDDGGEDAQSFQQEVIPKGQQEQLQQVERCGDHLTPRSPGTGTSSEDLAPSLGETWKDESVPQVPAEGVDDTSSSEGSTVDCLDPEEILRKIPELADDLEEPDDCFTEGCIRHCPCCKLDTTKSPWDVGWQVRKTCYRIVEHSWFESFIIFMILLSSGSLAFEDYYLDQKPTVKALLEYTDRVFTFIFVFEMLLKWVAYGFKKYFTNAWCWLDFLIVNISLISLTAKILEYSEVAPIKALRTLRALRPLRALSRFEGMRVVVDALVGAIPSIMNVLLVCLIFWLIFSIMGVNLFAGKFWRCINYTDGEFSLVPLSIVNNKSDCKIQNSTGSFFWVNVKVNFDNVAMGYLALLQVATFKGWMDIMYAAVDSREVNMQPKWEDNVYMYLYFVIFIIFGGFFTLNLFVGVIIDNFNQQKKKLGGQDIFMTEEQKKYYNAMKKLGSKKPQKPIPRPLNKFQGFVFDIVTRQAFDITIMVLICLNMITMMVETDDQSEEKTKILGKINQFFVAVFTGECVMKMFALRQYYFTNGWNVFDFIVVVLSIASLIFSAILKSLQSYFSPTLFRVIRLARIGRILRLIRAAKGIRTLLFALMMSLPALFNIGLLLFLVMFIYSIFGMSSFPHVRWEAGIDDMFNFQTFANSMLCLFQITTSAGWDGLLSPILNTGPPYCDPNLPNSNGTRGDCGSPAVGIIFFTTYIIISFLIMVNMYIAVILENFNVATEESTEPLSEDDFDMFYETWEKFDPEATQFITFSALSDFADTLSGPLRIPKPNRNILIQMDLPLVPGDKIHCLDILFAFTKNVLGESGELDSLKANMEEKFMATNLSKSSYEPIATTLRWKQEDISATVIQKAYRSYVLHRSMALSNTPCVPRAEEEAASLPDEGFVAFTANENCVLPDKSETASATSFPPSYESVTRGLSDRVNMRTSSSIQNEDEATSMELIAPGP

IC50 [µM]	SMILES
0.19	C[C@@H](C(N)=O)[C@H](N)c1nc2c(Cl)c(-c3ccc(C#N)cc3)ccc2[nH]1 [Example 111, (2R,3S)-3-Amino-3-[4-chloro-5-(4-cyanophenyl)-1H-benzimidazol-2-yl]-2-methylpropanamide]
0.187	CC[C@H](N)c1nc2cc(CC(C)(C)C)ccc2[nH]1 [Example 112, (1S)-1-[5-(2,2-Dimethylpropyl)-1H-benzimidazol-2-yl]propan-1-amine]
0.0278	N#Cc1ccc(-c2ccc3[nH]c(C4(N)Cc5ccccc5C4)nc3c2)cc1F [Example 114, 4-[2-(2-Amino-2,3-dihydro-1H-inden-2-yl)-1H-benzimidazol-5-yl]-2-fluorobenzonitrile]
2.49	N#Cc1ccc(-c2ccc3[nH]c([C@@H](N)CC(N)=O)nc3c2)cc1F [Example 117, (3S)-3-Amino-3-[5-(4-cyano-3-fluorophenyl)-1H-benzimidazol-2-yl]propanamide]
0.671	N#Cc1ccc(-c2ccc3[nH]c([C@@H](N)CC(N)=O)nc3c2)c(Cl)c1 [Example 119, (3S)-3-Amino-3-[5-(2-chloro-4-cyanophenyl)-1H-benzimidazol-2-yl]propanamide]
0.0885	CO[C@H](C)[C@H](N)c1nc2c(Cl)c(-c3ccc(C#N)c(F)c3)ccc2[nH]1 [Example 120, 4-{2-[(1R,2R)-1-Amino-2-methoxypropyl]-4-chloro-1H-benzimidazol-5-yl}-2-fluorobenzonitrile]
3.05	C[C@@H](O)[C@H](N)c1nc2c(Cl)c(-c3ccc(C#N)c(F)c3)ccc2[nH]1 [Example 121, 4-{2-[(1R,2R)-1-Amino-2-hydroxypropyl]-4-chloro-1H-benzimidazol-5-yl}-2-fluorobenzonitrile]
1.08	CO[C@H](C)[C@H](N)c1nc2cc(C(C)C)ccc2[nH]1 [Example 123, (1R,2R)-2-Methoxy-1-[5-(propan-2-yl)-1H-benzimidazol-2-yl]propan-1-amine]
2.77	CO[C@@H](C)[C@H](N)c1nc2cc(C(C)C)ccc2[nH]1 [Example 127, (1R,2S)-2-Methoxy-1-[5-(propan-2-yl)-1H-benzimidazol-2-yl]propan-1-amine]
0.394	CC(C)(C)c1ccc2[nH]c([C@@H]3C[C@@H](F)CN3)nc2c1 [Example 131, 5-tert-Butyl-2-[(2S,4R)-4-fluoropyrrolidin-2-yl]-1H-benzimidazole]
0.191	CC(C)(C)c1ccc2[nH]c([C@@H]3C[C@H](F)CN3)nc2c1 [Example 132, 5-tert-Butyl-2-[(2S,4S)-4-fluoropyrrolidin-2-yl]-1H-benzimidazole]
0.228	CC(C)[C@@H](O)[C@H](N)c1nc2cc(C(C)(C)C)ccc2[nH]1 [Example 133, (1R,2R)-1-Amino-1-(5-tert-butyl-1H-benzimidazol-2-yl)-3-methylbutan-2-ol]
0.508	CC(C)(C)c1ccc2[nH]c([C@H]3NCC[C@H]3O)nc2c1 [Example 136, (2R,3R)-2-(5-tert-Butyl-1H-benzimidazol-2-yl)pyrrolidin-3-ol]
0.915	C[C@@H](O)[C@@H](N)c1nc2cc(-c3ccc(C#N)cc3)ccc2[nH]1 [Example 137, 4-{2-[(1S,2R)-1-Amino-2-hydroxypropyl]-1H-benzimidazol-5-yl}benzonitrile]
0.486	C[C@H](O)[C@H](N)c1nc2cc(-c3ccc(C#N)cc3)ccc2[nH]1 [Example 138, 4-{2-[(1R,2S)-1-Amino-2-hydroxypropyl]-1H-benzimidazol-5-yl}benzonitrile]
0.0435	CC[C@@H](O)[C@H](N)c1nc2cc(C(C)(C)C)ccc2[nH]1 [Example 139, (1R,2R)-1-Amino-1-(5-tert-butyl-1H-benzimidazol-2-yl)butan-2-ol]
0.223	CC(C)(C)c1ccc2[nH]c([C@@H](N)CCCO)nc2c1 [Example 140, (4S)-4-Amino-4(5-tert-butyl-1H-benzimidazol-2-yl)butan-1-ol]
1.84	COC(C)(C)C(N)c1nc2cc(-c3ccc(C#N)cc3)ccc2[nH]1 (stereo not drawn) [Example 142, 4-[2-(1-Amino-2-methoxy-2-methylpropyl)-1H-benzimidazol-5-yl]benzonitrile]

Continued, compound first:

SMILES	IC50 [µM]
CC[C@H](N)c1nc2cc(C3CCC3)ccc2[nH]1 [Example 113, 1-(5-Cyclobutyl-1H-benzimidazol-2-yl)propylamine]	0.749
CC(C)(C)Cc1ccc2[nH]c(C(C)(N)CO)nc2c1 (stereo not drawn) [Example 115, 2-Amino-2-[6-(2,2-dimethylpropyl)-1H-benzimidazol-2-yl]propan-1-ol]	0.278
CC(C)(C)Cc1ccc2[nH]c(C3(N)Cc4ccccc4C3)nc2c1 [Example 116, 2-[6-(2,2-Dimethylpropyl)-1H-benzimidazol-2-yl]-2,3-dihydro-1H-inden-2-amine]	0.222
CC(C)(C)Cc1ccc2[nH]c([C@@H](N)CC(N)=O)nc2c1 [Example 118, (3S)-3-Amino-3-[5-(2,2-dimethylpropyl)-1H-benzimidazol-2-yl]propanamide]	0.348
C[C@@H](O)[C@H](N)c1nc2cc(-c3ccc(C#N)cc3Cl)ccc2[nH]1 [Example 122, 4-{2-[(1R,2R)-1-Amino-2-hydroxypropyl]-1H-benzimidazol-6-yl}-3-chlorobenzonitrile]	0.326
CC(C)c1ccc2[nH]c([C@@H](N)[C@H](O)C(C)C)nc2c1 [Example 125, (1R,2R)-1-Amino-3-methyl-1-[5-(propan-2-yl)-1H-benzimidazol-2-yl]butan-2-ol]	2.22
CC[C@@H](O)[C@H](N)c1nc2cc(C(C)C)ccc2[nH]1 [Example 126, (1R,2R)-1-Amino-1-[5-(propan-2-yl)-1H-benzimidazol-2-yl]butan-2-ol]	0.967
CO[C@@H](C)[C@H](N)c1nc2cc(C(C)(C)C)ccc2[nH]1 [Example 128, (1R,2S)-1-(5-tert-Butyl-1H-benzimidazol-2-yl)-2-methoxypropan-1-amine]	0.368
CC(C)(C)c1ccc2[nH]c([C@@H]3CCN3)nc2c1 [Example 129, 2-[(2S)-Azetidin-2-yl]-5-tert-butyl-1H-benzimidazole]	0.51
CC(C)(C)c1ccc2[nH]c([C@H]3CCN3)nc2c1 [Example 130, 2-[(2R)-Azetidin-2-yl]-5-tert-butyl-1H-benzimidazole]	1.34
CC(C)(C)c1ccc2[nH]c([C@H](N)CCO)nc2c1 [Example 134, (3R)-3-Amino-3-(5-tert-butyl-1H-benzimidazol-2-yl)propan-1-ol]	0.355
CC(C)(C)c1ccc2[nH]c([C@H](N)CCCO)nc2c1 [Example 135, (4R)-4-Amino-4-(5-tert-butyl-1H-benzimidazol-2-yl)butan-1-ol]	1
CC(C)(C)c1ccc2[nH]c([C@@H](N)C(C)(C)C(N)=O)nc2c1 [Example 141, (3S)-3-Amino-3-(5-tert-butyl-1H-benzimidazol-2-yl)-2,2-dimethylpropanamide]	0.797
CC(C)(C)c1ccc2[nH]c([C@@H](N)COC(N)=O)nc2c1 [Example 143, (R)-2-Amino-2-(5-(tert-butyl)-1H-benzo[d]imidazol-2-yl)ethyl carbamate]	0.0852
CC[C@@H](C(N)=O)[C@H](N)c1nc2cc(C(C)(C)C)ccc2[nH]1 [Example 144, (R)-2-((S)-Amino-(6-(tert-butyl)-1H-benzo[d]imidazol-2-yl)methyl)butanamide]	0.0413

Source: patent publication US8927587B2, “Chemical compounds” (Pfizer Limited, priority 2012, dated 2015)
